# Where two headings read alike, the source gives them in different places.
# Key:
# Assay in all cases: Minimum inhibitory concentration, serial dilution method on agar plate
# Type in all cases: cell-based
# [1] = system: Staphylococcus aureus No. 286
# [2] = system: Streptococcus pyogenes IID S-23; details: Streptococcus pyogenes, read-out: Minimum Inhibitory Concentration
# [3] = system: Staphylococcus aureus IFO 3060
# [4] = system: Shigella sonnei EW 33
# Procedure: The antimicrobial activity of the following test compounds on various test organisms listed below was determined by the serial dilution method on agar plate (Heart Infusion agar produced by Difco Co.) (see CHEMOTHERAPY 22, pp. 1126-1128 (1974)), and the minimum inhibitory concentrations (mcg/ml) obtained are shown in Tables 1, 2 and 3 below.
# A sample of each test organism was prepared so that the population of the organism was 1×10^8 cells/ml (O.D. 660 mμ=0.07 to 0.16) and 1×10^6 cells/ml (which was obtained by diluting 100 fold the above 1×10^8 cells/ml preparation).
# [5] = system: Staphylococcus aureus ATCC 12692
# [6] = system: Staphylococcus aureus E-46
structure (smiles),measurement,setting,value
"CC1CCc2c(N3CCC(O)CC3)c(F)cc3c(=O)c(C(=O)O)cn1c23 (stereo not drawn) [Compound 1, 9-Fluoro-8-(4-hydroxy-1-piperidyl)-5-methyl-6,7-dihydro-1-oxo-1H,5H-benzo[ij]quinolizine-2-carboxylic acid]",MIC,"[1]; NO.286, 1×10^6 cells/ml",0.05 µg/mL
same,MIC,"[1]; NO.286, 1×10^8 cells/ml",0.1 µg/mL
same,MIC,"[2]; IIDS23, 1×10^6 cells/ml",0.39 µg/mL
same,MIC,"[2]; IIDS23, 1×10^8 cells/ml",0.78 µg/mL
same,MIC,"[3]; IFO3060, 1×10^6 cells/ml",0.05 µg/mL
same,MIC,"[3]; IFO3060, 1×10^8 cells/ml",0.1 µg/mL
same,MIC,"[4]; EW33, 1×10^6 cells/ml",0.2 µg/mL
same,MIC,"[4]; EW33, 1×10^8 cells/ml",0.2 µg/mL
same,Minimum Inhibitory Concentration,[5]; 1×10^6 cells/ml,0.05 µg/mL
same,MIC,"[5]; Staphylococcus aureus, ATCC12692, 1×10^8 cells/ml",0.05 µg/mL
same,Minimum Inhibitory Concentration,[6]; 1×10^6 cells/ml,0.05 µg/mL
same,MIC,"[6]; Staphylococcus aureus, E46, 1×10^8 cells/ml",0.05 µg/mL
